Assays:
recombinant BRD4 BD1 = molecular target: T1, recombinant BRD4 BD1 (Homo sapiens, UniProt O60885); experiment: Competitive fluorescence-polarization (FP) binding assay, BRD4 BD1; settings: competitive FP assay; protein 10 nM, probe […]; read-out: IC50 (nM) BRD4 BD1; further: probe 1.5 nM
T1 construct: for recombinant BRD4 BD1 and BRD4 BD2 proteins
Experimental: (§1) Fluorescence Polarization (FP) competitive binding studies were carried out using a FAM labeled fluorescent probe (ZBA248 or BRD-1F) to determine binding affinities of representative Compounds of the Disclosure for recombinant BRD4 BD1 and BRD4 BD2 proteins. For example, equilibrium dissociation constants (Kd) values of ZBA248 to these […] proteins were determined from protein saturation experiments by monitoring the total fluorescence polarization of mixtures composed with the fluorescent probe at a fixed concentration and proteins with increasing concentrations up to full saturation. Serial dilutions of testing protein were mixed with ZBA248 to a final volume of 200 μl in the assay buffer. […] Plates were incubated at room temperature for 30 minutes with gentle shaking to assure equilibrium. […] Kd values of ZBA248 were calculated by fitting the sigmoidal dose-dependent FP increases as a function of protein concentrations using Graphpad Prism 6.0 software (Graphpad Software, San Diego, Calif.).
(§2) The IC50 and Ki values of representative Compounds of the Disclosure were determined in a competitive binding experiment as described above. Mixtures of 10 μl of the tested compounds in assay buffer with 40% Ethylene Glycol and 190 μl of preincubated protein/probe complex solution in the assay buffer (100 mM potassium phosphate, pH 6.5, 0.01% Triton X-100) were added into assay plates which were incubated at room temperature for 30 minutes with gentle shaking. Final concentrations of proteins were 10 and 6 nM in assays for BD1 and BD2 of BRD4, respectively. […] FP values were measured as described above. IC50 values were determined by nonlinear regression fitting of the competition curves.

recombinant BRD4 BD2 = molecular target: T2, recombinant BRD4 BD2 (Homo sapiens, UniProt O60885); experiment: Competitive fluorescence-polarization (FP) binding assay, BRD4 BD2; settings: competitive FP assay; protein 6 nM, probe […]; read-out: IC50 (nM) BRD4 BD2; further: probe 1.5 nM
T2 construct: for recombinant BRD4 BD1 and BRD4 BD2 proteins
Experimental: as §1, §2

MDA-MB-436 = experiment: Cell growth inhibition, MDA-MB-436 breast cancer cells (WST-8); assay type: cell-based; settings: Homo sapiens, MDA-MB-436, 96 h; 4 days; read-out: IC50 (nM) MDA-MB-436 Cell Line (WST assay)
Experimental: All the breast cancer cell lines were obtained from the ATCC. Cell viability was determined using the WST-8 (2-(2-methoxy-4-nitrophenyl)-3-(4-nitrophenyl)-5-(2,4-disulfophenyl)-2H-tetrazolium, monosodium salt) based Cell Counting-8 Kit (Dojindo Molecular Technologies, Inc., Rockville, Md.) according to the manufacture's instruction. […] The absorbance was measured at 450 nm using a SPECTRAmax PLUS plate reader (Molecular Devices, Sunnyvale, Calif.). The IC50 was calculated using the GraphPad Prism 5 software.

MOLM-13 = experiment: Cell growth inhibition, MOLM-13 leukemia cells (CellTiter-Glo); assay type: cell-based; settings: Homo sapiens, MOLM-13, 96 h; 4 days; read-out: IC50 (nM) MOLM-13 Cell Line (CellTiter-Glo assay)
Experimental: Cell growth inhibitory activity of representative Compounds of the Disclosure was determined using CellTiter-Glo® Luminescent Cell Viability Assay. […] Cell viability was determined using the CellTiter-Glo® Luminescent Cell Viability Assay Kit (Promega, Madison, Wis.) according to the manufacture's instruction. Briefly, a volume of CellTiter-Glo® Reagent equal to the volume of cell culture medium was added to each well, and then the plates were incubated at room temperature for 10-20 minutes. The luminescent signal was measured using a Tecan Infinite M1000 multimode microplate reader (Tecan, Morrisville, N.C.). The half maximal inhibitory concentration (IC50) was calculated using the GraphPad Prism 5 software (GraphPad Software, La Jolla, Calif.).

| Structure (SMILES) | IC50 (recombinant BRD4 BD1) | IC50 (recombinant BRD4 BD2) | IC50 (MDA-MB-436) | IC50 (MOLM-13) |
| --- | --- | --- | --- | --- |
| COc1cc2c(cc1-c1c(C)noc1C)[nH]c1nc(C)nc(Nc3cccc(N(C)C)c3)c12 [Cpd. No. 230, N1-(7-(3,5-dimethylisoxazol-4-yl)-6-methoxy-2-methyl-9H-pyrimido[4,5-b]indol-4-yl)-N3,N3-dimethylbenzene-1,3-diamine] | 13 nM | 8 nM | 123 nM | 71 nM |
| COc1cc2c(cc1-c1c(C)noc1C)[nH]c1nc(C)nc(Nc3cc(C)nn3-c3ccccc3)c12 [Cpd. No. 1, 7-(3,5-Dimethylisoxazol-4-yl)-6-methoxy-2-methyl-N-(3-methyl-1-phenyl-1H-pyrazol-5-yl)-9H-pyrimido[4,5-b]indol-4-amine] | – | 21.8 nM | 148 nM | 29.8 nM |
| COc1cc2c(cc1-c1c(C)noc1C)[nH]c1nc(C)nc(Nc3cc(C)ccn3)c12 [Cpd. No. 110, 7-(3,5-dimethylisoxazol-4-yl)-6-methoxy-2-methyl-N-(4-methylpyridin-2-yl)-9H-pyrimido[4,5-b]indol-4-amine] | 73 nM | 33 nM | 354 nM | 16 nM |
| COc1cc2c(cc1-c1c(C)noc1C)[nH]c1nc(C)nc(Nc3ccnc4ccccc34)c12 [Cpd. No. 247, 7-(3,5-dimethylisoxazol-4-yl)-6-methoxy-2-methyl-N-(quinolin-4-yl)-9H-pyrimido[4,5-b]indol-4-amine] | 165 nM | 121 nM | 115 nM | 113 nM |
| COc1cc2c(cc1-c1c(C)noc1C)[nH]c1nc(C)nc(Nc3nn(C)cc3C)c12 [Cpd. No. 77, N-(1,4-dimethyl-1H-pyrazol-3-yl)-7-(3,5-dimethylisoxazol-4-yl)-6-methoxy-2-methyl-9H-pyrimido[4,5-b]indol-4-amine] | 64.4 nM | 168 nM | 351 nM | 242 nM |
| COc1cc2c(cc1-c1c(C)noc1C)[nH]c1nc(C)nc(Nc3nn(C)c4cc(F)ccc34)c12 [Cpd. No. 59, 7-(3,5-Dimethylisoxazol-4-yl)-N-(6-fluoro-1-methyl-1H-indazol-3-yl)-6-methoxy-2-methyl-9H-pyrimido[4,5-b]indol-4-amine] | 90.5 nM | 174 nM | 535 nM | 401 nM |
| COc1cc2c(cc1-c1c(C)noc1C)[nH]c1nc(C)nc(Nc3nn(C)c4ccc(F)cc34)c12 [Cpd. No. 127, 7-(3,5-Dimethylisoxazol-4-yl)-N-(5-fluoro-1-methyl-1H-indazol-3-yl)-6-methoxy-2-methyl-9H-pyrimido[4,5-b]indol-4-amine] | – | – | 508 nM | 178 nM |
| COc1cc2c(cc1-c1c(C)noc1C)[nH]c1nc(C)nc(Nc3c[nH]nc3-c3ccccc3)c12 [Cpd. No. 2, 7-(3,5-Dimethylisoxazol-4-yl)-6-methoxy-2-methyl-N-(3-phenyl-1H-pyrazol-4-yl)-9H-pyrimido[4,5-b]indol-4-amine] | – | 41.9 nM | 246 nM | 68 nM |
| COc1cc2c(cc1-c1c(C)noc1C)[nH]c1nc(C)nc(Nc3nn(C)c4ccccc34)c12 [Cpd. No. 12, 7-(3,5-Dimethylisoxazol-4-yl)-6-methoxy-2-methyl-N-(1-methyl-1H-indazol-3-yl)-9H-pyrimido[4,5-b]indol-4-amine] | – | 28.2 nM | 59.6 nM | 15.2 nM |
| COc1cc2c(cc1-c1c(C)noc1C)[nH]c1nc(C)nc(Nc3sc(-c4ncco4)nc3-c3ccccc3)c12 [Cpd. No. 6, N-(7-(3,5-Dimethylisoxazol-4-yl)-6-methoxy-2-methyl-9H-pyrimido[4,5-b]indol-4-yl)-2-(oxazol-2-yl)-4-phenylthiazol-5-amine] | – | – | 1520 nM | 52.6 nM |
| COc1cc2c(cc1-c1c(C)noc1C)[nH]c1nc(C)nc(Nc3cc(C(F)(F)F)nn3C(C)(C)C)c12 [Cpd. No. 117, N-(1-(tert-Butyl)-3-(trifluoromethyl)-1H-pyrazol-5-yl)-7-(3,5-dimethylisoxazol-4-yl)-6-methoxy-2-methyl-9H-pyrimido[4,5-b]indol-4-amine] | 62.4 nM | – | 177 nM | 90.9 nM |
